Data: article PMC4503722, “Novel Phenotypic Outcomes Identified for a Public Collection of Approved Drugs from a Publicly Accessible Panel of Assays” (PLoS ONE, 2015)
Where two headings read alike, the source gives them in different places.

What was measured:
HT-29 = experiment: cells; format: cell-based; settings: for Basal_Viability ATP HT-29 IC50/EC50: assay number 28
[1] = test system: endothelial tube formation in co-cultures of ECFCs and ADSCs treated with VEGF; experiment: cells; format: cell-based, human
[2] = test system: HCT116 cells treated with a GSK3β inhibitor; experiment: cells; format: cell-based; settings: for GSK3b inh pretreated_Viability ATP HCT116 IC50/EC50: assay number 26, GSK3b inhibitor pretreated
HCT116 = experiment: cells; format: cell-based; settings: for Basal_Viability ATP HCT116 IC50/EC50: assay number 25
SW480 = experiment: cells; format: cell-based; settings: for Basal_Viability ATP SW480 IC50/EC50: assay number 24
[3] = test system: ECFC/ADSC co-culture cell nuclei number
SNU-C1 = experiment: cells; format: cell-based; settings: for Basal_Viability ATP SNU-C1 IC50/EC50: assay number 30
DLD-1 = experiment: cells; format: cell-based; settings: for Basal_Viability ATP DLD-1 IC50/EC50: assay number 23
RKO = experiment: cells; format: cell-based; settings: for Basal_Viability ATP RKO IC50/EC50: assay number 29
Colo320 = experiment: cells; format: cell-based; settings: for Basal_Viability ATP Colo 320 IC50/EC50: assay number 27

## O=C(Nc1ccc(Br)cc1)c1cc(Br)c(Br)s1 [NCGC00160448-02]
HT-29; basal
  Basal_Viability ATP HT-29 IC50/EC50: 0.5199 µM
[1]
  VEGF_ADSC\ECFC Angio CD31 TubeArea IC50/EC50: > 10 µM
[2]
  GSK3b inh pretreated_Viability ATP HCT116 IC50/EC50: 0.3423 µM
HCT116; basal
  Basal_Viability ATP HCT116 IC50/EC50: 0.5412 µM
SW480; basal
  Basal_Viability ATP SW480 IC50/EC50: 0.1229 µM
[3]
  VEGF_ADSC\ECFC Angio Hoechst NucArea IC50/EC50: > 10 µM
SNU-C1; basal
  Basal_Viability ATP SNU-C1 IC50/EC50: 1.0991 µM
DLD-1; basal
  Basal_Viability ATP DLD-1 IC50/EC50: 0.3353 µM
RKO; basal
  Basal_Viability ATP RKO IC50/EC50: 0.4312 µM
Colo320; basal
  Basal_Viability ATP Colo 320 IC50/EC50: 0.018 µM

## CCC1Nc2cc(Cl)c(S(N)(=O)=O)cc2S(=O)(=O)N1 (centres unmarked) [NCGC00160540-03]
HT-29; basal
  Basal_Viability ATP HT-29 IC50/EC50: > 20 µM
[1]
  VEGF_ADSC\ECFC Angio CD31 TubeArea IC50/EC50: > 10 µM
[2]
  GSK3b inh pretreated_Viability ATP HCT116 IC50/EC50: > 20 µM
HCT116; basal
  Basal_Viability ATP HCT116 IC50/EC50: > 20 µM
SW480; basal
  Basal_Viability ATP SW480 IC50/EC50: > 6.6667 µM
[3]
  VEGF_ADSC\ECFC Angio Hoechst NucArea IC50/EC50: > 10 µM
SNU-C1; basal
  Basal_Viability ATP SNU-C1 IC50/EC50: > 20 µM
DLD-1; basal
  Basal_Viability ATP DLD-1 IC50/EC50: > 20 µM
RKO; basal
  Basal_Viability ATP RKO IC50/EC50: > 20 µM
Colo320; basal
  Basal_Viability ATP Colo 320 IC50/EC50: > 20 µM

## O=C1c2ccccc2C(=O)C1C(=O)C(c1ccccc1)c1ccccc1 [NCGC00160553-03]
HT-29
  IC50/EC50, Basal_Viability ATP HT-29 (assay number 28): 4.4845 µM
[1]
  IC50/EC50, VEGF_ADSC\ECFC Angio CD31 TubeArea (assay number 2): > 10 µM
[2]
  IC50/EC50, GSK3b inh pretreated_Viability ATP HCT116 (assay number 26): 0.5674 µM
HCT116
  IC50/EC50, Basal_Viability ATP HCT116 (assay number 25): 0.5307 µM
SW480
  IC50/EC50, Basal_Viability ATP SW480 (assay number 24): 0.5361 µM
[3]
  IC50/EC50, VEGF_ADSC\ECFC Angio Hoechst NucArea (assay number 3): > 10 µM
SNU-C1
  IC50/EC50, Basal_Viability ATP SNU-C1 (assay number 30): 4.0068 µM
DLD-1
  IC50/EC50, Basal_Viability ATP DLD-1 (assay number 23): 1.326 µM
RKO
  IC50/EC50, Basal_Viability ATP RKO (assay number 29): 1.5932 µM
Colo320
  IC50/EC50, Basal_Viability ATP Colo 320 (assay number 27): 0.6211 µM

## CCCCCCOC(=O)c1cccnc1 [NCGC00160591-02]
HT-29; concentration response
  Basal_Viability ATP HT-29 IC50/EC50: > 20 µM
[1]
  VEGF_ADSC\ECFC Angio CD31 TubeArea IC50/EC50: > 10 µM
[2]; concentration response
  GSK3b inh pretreated_Viability ATP HCT116 IC50/EC50: > 20 µM
HCT116; basal, concentration response
  Basal_Viability ATP HCT116 IC50/EC50: > 20 µM
SW480; concentration response
  Basal_Viability ATP SW480 IC50/EC50: > 20 µM
[3]
  VEGF_ADSC\ECFC Angio Hoechst NucArea IC50/EC50: > 10 µM
SNU-C1; concentration response
  Basal_Viability ATP SNU-C1 IC50/EC50: > 20 µM
DLD-1; concentration response
  Basal_Viability ATP DLD-1 IC50/EC50: > 20 µM
RKO; concentration response
  Basal_Viability ATP RKO IC50/EC50: > 20 µM
Colo320; concentration response
  Basal_Viability ATP Colo 320 IC50/EC50: > 20 µM

## CCC(C(=O)OCCOCCN(CC)CC)c1ccccc1.O=C(O)CC(O)(CC(=O)O)C(=O)O (centres unmarked) [NCGC00160645-02]
HT-29; basal
  Basal_Viability ATP HT-29 IC50/EC50: > 20 µM
[1]
  VEGF_ADSC\ECFC Angio CD31 TubeArea IC50/EC50: > 10 µM
[2]
  GSK3b inh pretreated_Viability ATP HCT116 IC50/EC50: > 20 µM
HCT116; basal
  Basal_Viability ATP HCT116 IC50/EC50: > 20 µM
SW480; basal
  Basal_Viability ATP SW480 IC50/EC50: > 20 µM
[3]
  VEGF_ADSC\ECFC Angio Hoechst NucArea IC50/EC50: > 10 µM
SNU-C1; basal
  Basal_Viability ATP SNU-C1 IC50/EC50: > 20 µM
DLD-1; basal
  Basal_Viability ATP DLD-1 IC50/EC50: > 20 µM
RKO; basal
  Basal_Viability ATP RKO IC50/EC50: > 20 µM
Colo320; basal
  Basal_Viability ATP Colo 320 IC50/EC50: > 20 µM

## CN1CCN(c2cc3c(nn2)Oc2ccccc2N3C)CC1 [NCGC00160646-02]
HT-29; basal
  Basal_Viability ATP HT-29 IC50/EC50: > 20 µM
[1]
  VEGF_ADSC\ECFC Angio CD31 TubeArea IC50/EC50: > 10 µM
[2]
  GSK3b inh pretreated_Viability ATP HCT116 IC50/EC50: > 20 µM
HCT116; basal
  Basal_Viability ATP HCT116 IC50/EC50: > 20 µM
SW480; basal
  Basal_Viability ATP SW480 IC50/EC50: > 20 µM
[3]
  VEGF_ADSC\ECFC Angio Hoechst NucArea IC50/EC50: > 10 µM
SNU-C1; basal
  Basal_Viability ATP SNU-C1 IC50/EC50: > 20 µM
DLD-1; basal
  Basal_Viability ATP DLD-1 IC50/EC50: > 20 µM
RKO; basal
  Basal_Viability ATP RKO IC50/EC50: > 20 µM
Colo320; basal
  Basal_Viability ATP Colo 320 IC50/EC50: > 20 µM

## O=[N+]([O-])c1cccc(S(=O)(=O)NCCNS(=O)(=O)c2cccc([N+](=O)[O-])c2)c1 [NCGC00160679-02]
HT-29; basal
  Basal_Viability ATP HT-29 IC50/EC50: > 20 µM
[1]
  VEGF_ADSC\ECFC Angio CD31 TubeArea IC50/EC50: > 10 µM
[2]
  GSK3b inh pretreated_Viability ATP HCT116 IC50/EC50: > 20 µM
HCT116; basal
  Basal_Viability ATP HCT116 IC50/EC50: > 20 µM
SW480; basal
  Basal_Viability ATP SW480 IC50/EC50: > 20 µM
[3]
  VEGF_ADSC\ECFC Angio Hoechst NucArea IC50/EC50: > 10 µM
SNU-C1; basal
  Basal_Viability ATP SNU-C1 IC50/EC50: > 20 µM
DLD-1; basal
  Basal_Viability ATP DLD-1 IC50/EC50: > 20 µM
RKO; basal
  Basal_Viability ATP RKO IC50/EC50: > 20 µM
Colo320; basal
  Basal_Viability ATP Colo 320 IC50/EC50: > 20 µM

## CSc1ccc(/C=C2/C(C)=C(CC(=O)O)c3cc(F)ccc32)cc1 [NCGC00161601-02]
HT-29; basal
  IC50/EC50, Basal_Viability ATP HT-29 (assay number 28): > 20 µM
[1]
  IC50/EC50, VEGF_ADSC\ECFC Angio CD31 TubeArea (assay number 2): > 10 µM
[2]; GSK3b inh pretreated
  IC50/EC50, GSK3b inh pretreated_Viability ATP HCT116 (assay number 26): > 20 µM
HCT116; basal
  IC50/EC50, Basal_Viability ATP HCT116 (assay number 25): > 20 µM
SW480; basal
  IC50/EC50, Basal_Viability ATP SW480 (assay number 24): 19.964 µM
[3]
  IC50/EC50, VEGF_ADSC\ECFC Angio Hoechst NucArea (assay number 3): > 10 µM
SNU-C1; basal
  IC50/EC50, Basal_Viability ATP SNU-C1 (assay number 30): 11.9864 µM
DLD-1; basal
  IC50/EC50, Basal_Viability ATP DLD-1 (assay number 23): > 20 µM
RKO; basal
  IC50/EC50, Basal_Viability ATP RKO (assay number 29): > 20 µM
Colo320; basal
  IC50/EC50, Basal_Viability ATP Colo 320 (assay number 27): > 20 µM
